The values that follow are results of earlier work, collected in patent US6559178B1 (priority 2002, dated 2003).

The test system of this data set is cancer. To be noted: Phase II testing.

With `CC(=O)OC[C@]12CCC(C)=C[C@H]1O[C@@H]1[C@H](O)[C@@H](OC(C)=O)[C@@]2(C)[C@]12CO2` [Anguidine], the hematologic toxicity result was “considerable hematologic toxicity” and the tumor response entry is recorded as “low tumor response”.
